According to patent publication US6319929A, “Suksdorfin analogs, compositions thereof, and methods for making and using thereof” (priority 1998, dated 2001):

Tests used:
uninfected H9 cells [1] = test: Toxicity to uninfected H9 cells (cell growth); assay type: cell-based; details: for IC50: Homo sapiens
Procedure: (§1) HIV inhibition assay. The HIV inhibition was measured as described herein. Briefly, H9 cells, a T cell line, (3.5×10^6 cells/ml) were incubated in the presence or absence of HIV-1 (IIIB strain, 0.01-0.1 TCID50 /cell) for 1 hour at 37° C. Cells were washed thoroughly and resuspended at a final concentration of 2×10^5 cells/ml in the presence or absence of compound. After incubation for 3-4 days at 37° C., the cell density of uninfected cultures was determined by cell count to assess toxicity of the drug. An aliquot of each cell-free supernatant was assayed by p24 antigen ELISA to quantitate the amount of HIV-1 present in the infected cultures. Test compounds were considered to be active at a particular concentration if p24 antigen levels were less than 70% of infected, untreated controls and were nontoxic to uninfected H9 cells.
(§2) HIV Growth Inhibition Assay: The T cell line, H9, and the promonocytic cell line, U937, were maintained separately in continuous culture with complete medium (RPMI 1640 and […] fetal calf serum (FCS) at 5% CO2 and 37° C. Cell lines were used in experiments only when in log phase of growth; whereas, uninfected peripheral blood mononuclear cells (PBMCs) were first stimulated with PHA (1 μg/ml) for 3 days. All cell targets were incubated with HIV-1 (IIIB isolate, TCID50 10 ^4 IU/mi, at a multiplicity of infection of 0.1-0.01 IU/cell) for 1 hour at 37° C. and 5% CO2. The cell lines and PBMCs were washed thoroughly to remove unabsorbed virions and resuspended at 4×10^5 cells/ml in complete medium or complete medium with 10% v/v interleukin […] IL-2, respectively. Aliquots ( ml) were placed in wells of 24-well culture plates containing an equal volume of test compound (diluted in the appropriate culture medium). After incubation for 4 days at 37° C., cell density of uninfected cultures was determined by counting cells in a Coulter counter to assess toxicity of the test compound. A p24 antigen ELISA assay was used to determine the level of virus released in the medium of the HIV-infected cultures. The p24 antigen assay uses a HIV-1 anti-p24 specific monoclonal antibody as the capture antibody coated-on 96-well plates. Following a sample incubation period, rabbit serum containing antibodies for HIV-1 p24 is used to tag any p24 "captured" onto the microtiter well surface. Peroxidase conjugated goat anti-rabbit serum is then used to tag HIV-1 p24 specific rabbit antibodies which have complexed with captured p24. […] The cut-off for the p24 ELISA assay is 12. pg/ml. P24 in the culture medium was quantitated against a standard curve containing known amounts of p24. The effective (EC50) and inhibitory (IC50) concentrations (for anti-HIV activity and cytotoxicity, respectively) were determined graphically. Both the EC50 and IC50 values were calculated by plotting drug concentration versus percent inhibition, and then identifying a 50% inhibition value from the graph.

[2] = tested on: HIV-1 replication in H9 cells; test: HIV-1 replication inhibition in acutely infected H9 lymphocytes (p24 antigen ELISA); assay type: cell-based, HIV-1 (IIIB strain); details: for EC50: Human immunodeficiency virus 1, H9, acutely infected H9 cells; for anti-HIV activity in H9 cells (in words): acutely infected H9 cells
Procedure: as §1, §2

[3] = tested on: HIV-1 replication in H9 cells; test: Combination study of suksdorfin with AZT, ddI and ddC: HIV-1 replication in acutely infected H9 cells; assay type: cell-based, HIV-1 (IIIB); details: for EC50 / IC50: Human immunodeficiency virus 1, H9; for EC50 / IC50 / Therapeutic Index: combinations with 4 μg/ml suksdorfin; for EC50: read-out: EC50; for IC50: concentration which inhibits viral replication by 50%, read-out: IC50 (μM)^b
Procedure: as §2, with “surface.” for “surface. Peroxidase conjugated goat anti-rabbit serum is then used to tag HIV-1 p24 specific rabbit antibodies which have complexed with captured p24.”, “The effective (EC50) and inhibitory (IC50) concentrations (for anti-HIV activity and cytotoxicity, respectively) were determined graphically.” left out
Combination Study: The experimental design is identical to the growth inhibition assay except that various concentrations of AZT, ddI or ddC were also added to cultures of acutely HIV-1 infected H9 cells that either have or have no received different concentrations of suksdorfin. The concentrations of AZT, ddI and ddC were 5 ten-fold dilutions starting at 1 μg/ml. [drawing 104] [drawing 105]

uninfected H9 cells [4] = test: Combination study of suksdorfin with AZT, ddI and ddC: toxicity to uninfected H9 cells; assay type: cell-based; details: Homo sapiens, H9, combinations with 4 μg/ml suksdorfin
Procedure: Pharm. Asso. […] Aliquots ( ml) were placed in wells of 24-well culture plates containing an equal volume of test compound (diluted in the appropriate culture medium). After incubation for 4 days at 37° C., cell density of uninfected cultures was determined by counting cells in a Coulter counter to assess toxicity of the test compound. A p24 antigen ELISA assay was used to determine the level of virus released in the medium of the HIV-infected cultures. The p24 antigen assay uses a HIV-1 anti-p24 specific monoclonal antibody as the capture antibody coated-on 96-well plates. Following a sample incubation period, rabbit serum containing antibodies for HIV-1 p24 is used to tag any p24 "captured" onto the microtiter well surface. […] The cut-off for the p24 ELISA assay is 12. pg/ml. P24 in the culture medium was quantitated against a standard curve containing known amounts of p24. The effective (EC50) and inhibitory (IC50) concentrations (for anti-HIV activity and cytotoxicity, respectively) were determined graphically.
Combination Study: The experimental design is identical to the growth inhibition assay except that various concentrations of AZT, ddI or ddC were also added to cultures of acutely HIV-1 infected H9 cells that either have or have no received different concentrations of suksdorfin.

[5] = IC50 for cell growth inhibition divided by EC50 for HIV inhibition, H9
[6] = Table 16, concentration which inhibits uninfected cell growth by 50%, read-out: IC50 (μM)^a

CC1(C)O[C@H]1COc1c2ccoc2cc2oc(=O)ccc12 [Oxypeucedanin, oxypeucedanin, reference compound]
IC50 (uninfected H9 cells [1]; H9, Table 14, concentration which inhibits uninfected cell growth by 50%, read-out: IC50 (μM)^a): > 69.9 µM
IC50 (uninfected H9 cells [1]; H9, concentration which inhibits uninfected cell growth by 50%, read-out: IC50): > 69.9 µM
EC50 ([2]; concentration which inhibits viral replication by 50%, Inactive = No suppression of HIV-1 replication in H9 cells, read-out: EC50): 31.5 µM
IC50 ([2]; Human immunodeficiency virus 1, Table 14, concentration which inhibits viral replication by 50%, Inactive = No suppression of HIV-1 replication in H9 cells, read-out: IC50 (μM)^b): 31.5 µM
Therapeutic Index [2, 5]: > 2.2
Therapeutic Index ([2]; Table 14): > 2.2

C/C=C(/C)C(=O)O[C@@H]1c2c(ccc3ccc(=O)oc23)OC(C)(C)[C@@H]1OC(C)=O [Pteryxin, pteryxin, reference compound]
increase of toxicity on replacing 4'-isovaleryl by angeloyl (versus suksdorfin) (uninfected H9 cells [1]; H9 cells): 5 fold
IC50 (uninfected H9 cells [1]; H9, concentration which inhibits uninfected cell growth by 50%): > 10.4 µM
IC50 (uninfected H9 cells [1]; H9, read-out: IC50 (μM)^a, Table 14, concentration which inhibits uninfected cell growth by 50%): > 10.4 µM
EC50 ([2]; concentration which inhibits viral replication by 50%, Inactive = No suppression of HIV-1 replication in H9 cells): 4.6 µM
IC50 ([2]; Human immunodeficiency virus 1, H9, read-out: IC50 (μM)^b): 4.6 µM
Therapeutic Index [2, 5]: > 3.7
Therapeutic Index ([2]; Table 14): > 3.7
anti-HIV activity in H9 cells (in words) [2]: slightly reduced anti-HIV-l activity
anti-HIV activity in H9 cells (in words) ([2]; listed as pteryxn): slightly reduced anti-HIV-1 activity

Nc1ccn([C@H]2CC[C@@H](CO)O2)c(=O)n1 [ddC, dideoxycytidine]
EC50 ([3]; Table 5): 0.004 µg/mL
IC50 ([3]; Table 16): 0.004 µg/mL
Therapeutic Index ([3]; Table 5): > 250
Therapeutic Index ([3]; Table 16): > 250
decrease of EC50 in presence of suksdorfin ([3]; with 4 μg/ml suksdorfin, H9): 40 fold
IC50 (uninfected H9 cells [4]; Table 5, read-out: IC50): > 1 µg/mL
IC50 (uninfected H9 cells [4]; [6]): > 1 µg/mL

O=c1[nH]cnc2c1ncn2[C@H]1CC[C@@H](CO)O1 [ddI]
EC50 ([3]; Table 5): 0.4 µg/mL
IC50 ([3]; Table 16): 0.4 µg/mL
Therapeutic Index ([3]; Table 5): > 2.5
Therapeutic Index ([3]; Table 16): > 2.5
decrease of EC50 in presence of suksdorfin ([3]; with 4 μg/ml suksdorfin, H9): 4000 fold
reduction of amount of nucleoside needed in presence of suksdorfin ([3]; with 4 μg/ml suksdorfin, H9): 4000 fold
IC50 (uninfected H9 cells [4]; Table 5, read-out: IC50): > 1 µg/mL
IC50 (uninfected H9 cells [4]; [6]): > 1 µg/mL
Therapeutic Index [2, 5]: > 400
